Laboratory results published in the Biogen ADME set (Fang et al. 2023).
≈ marks a conversion by molar mass, not a printed value.

Settings: for aqueous solubility: pH 6.8

MDR1-MDCK efflux ratio	intrinsic clearance, human liver microsomes [mL/min/kg]	intrinsic clearance, rat liver microsomes [mL/min/kg]	aqueous solubility [µg/mL]	fraction unbound, human plasma	fraction unbound, rat plasma	SMILES
–	–	–	0.82 (≈ 2.11 µM)	–	–	O=C(Nc1nc2ccccc2[nH]1)C1CC(=O)N(c2cccc(C(F)(F)F)c2)C1 (stereo not given)
9.92	337	1800	43.7 (≈ 104 µM)	–	–	CCN(CC)S(=O)(=O)c1ccc2c(c1)CCN2CC(=O)NCc1ccccc1F
0.671	148	1100	19.4 (≈ 49.1 µM)	–	–	O=C(CN1CCCN(c2ccc(C(F)(F)F)cn2)CC1)Nc1ccccc1F
86.7	182	142	55.7 (≈ 141 µM)	–	–	CC(C)c1ccc(-c2cc3c(=O)n(CCC(=O)NCCN(C)C)ccn3n2)cc1
0.895	≤ 4.74	453	36.3 (≈ 139 µM)	–	–	CC(=O)c1ccc(OCCCCN2CCCC2)cc1
0.605	24.5	131	3.51 (≈ 13 µM)	–	–	Fc1ccccc1CNc1nc(-c2ccccc2)no1
–	–	–	53.6 (≈ 208 µM)	–	–	CN(C)S(=O)(=O)Nc1ccc2sncc2c1
–	31.1	320	21.4 (≈ 47.7 µM)	–	–	C=CCN(C)CCCCCCOc1ccc(C(=O)c2ccc(Br)cc2)c(F)c1
0.797	33.2	861	–	–	–	COc1ccc(CC2CN3CCN(C(=O)OCc4ccccc4)CC3CO2)cc1 (stereo not given)
27.4	59	313	–	–	–	C[C@H](Cc1cc2c(c(C(N)=O)c1)N(CCCO)CC2)NCCOc1ccccc1OCC(F)(F)F
–	–	–	21.9 (≈ 77.5 µM)	–	–	CCc1nc(COc2ccccc2Br)no1
0.607	16	516	43.1 (≈ 171 µM)	–	–	Cc1c(C)n(Cc2ccccc2)c2ncnc(N)c12
0.397	8.57	209	87.4 (≈ 288 µM)	–	–	CN1CCC(OC(=O)Nc2ccc(Cl)c(Cl)c2)CC1
–	–	–	0.43 (≈ 1.06 µM)	–	–	CCC(C)(C)c1ccc(Oc2ccc(NC(=O)Nc3ccccc3OC)cc2)cc1
23.5	≤ 4.74	19.9	45 (≈ 157 µM)	–	–	CCNC(=O)C1CN(c2nc(C3CC3)nc3c2CCC3)C1
0.519	57.9	1460	–	–	–	O=c1c2sccc2nc2n1CCN(Cc1ccc(F)cc1F)CC2
3.73	155	1510	30.2 (≈ 79.9 µM)	–	–	Cc1ccc(CNC(=O)CN2CCC(n3nnc4cc(C)ccc43)CC2)cc1
3.51	≤ 4.74	–	–	–	–	CCN1CCOC(C(=O)N2CCC(c3cn[nH]c3)CC2)C1 (stereo not given)
85.5	9.79	210	–	0.00892	0.00491	C=CC(=O)Nc1cccc(Oc2nc(Nc3ccc(N4CCN(C)CC4)cc3)nc3ccsc23)c1

Further lines, the compound ahead of its results:

SMILES	MDR1-MDCK efflux ratio	intrinsic clearance, human liver microsomes [mL/min/kg]	intrinsic clearance, rat liver microsomes [mL/min/kg]	aqueous solubility [µg/mL]	fraction unbound, human plasma	fraction unbound, rat plasma
CC(C)c1cnn2c(NCc3ccccc3)cc(NCCCCCCN)nc12	41.3	7.76	210	50 (≈ 131 µM)	–	–
CC(=O)c1ccccc1-c1cccc(C(=O)NCCCN2CCCC2)c1	133	≤ 4.74	742	–	–	–
Cc1cc(-c2cccc3ccnn23)nc(N2CCCC2)n1	–	122	1600	–	–	–
COC1CCN(C(=O)Nc2cc(C(F)(F)F)cc(C(F)(F)F)c2)CC1	0.476	60	158	71.4 (≈ 193 µM)	–	–
CCc1nc2cc(-c3c(OC)cccc3OC)ccc2o1	0.46	49.6	3760	19 (≈ 67.1 µM)	–	–
CSCc1c(C(=O)NC(C)C)oc2ccccc12	0.636	85.1	367	27.9 (≈ 106 µM)	–	–
CC1CCN(Cc2ccc(NC(=O)c3ccccn3)cc2)CC1	0.675	≤ 4.74	16.2	40.8 (≈ 132 µM)	–	–
O=S(=O)(c1cccnc1)N1CCC2(Cc3ccccc3C2)C1	0.627	91.2	5070	–	–	–
CN(CCn1cnc(C#N)c1C#N)c1ccccc1	0.634	52.4	1060	–	–	–
CC(C)c1cc(N2CCc3[nH]nc(C4CC4)c3C2)n2nccc2n1	6.42	70.4	381	23.8 (≈ 73.7 µM)	–	–
Cc1cc(N(C)C)nc(-n2cnc(C#N)n2)n1	0.595	33.6	79.2	23.3 (≈ 101 µM)	–	–
Cn1ncc2cc(-c3ccnc4[nH]ccc34)ccc21	0.608	117	689	4.67 (≈ 18.8 µM)	–	–
O=C(Nc1cccc(N2CCNC2=O)c1)C1NCC12CCCC2 (stereo not given)	22	≤ 4.74	–	–	0.523	–
CCNc1cc2c(nn1)CCN(C(=O)Cn1ccc3ccccc31)C2	–	≤ 4.74	93.1	–	–	–
CN(C/C=C/C(=O)N1CCC[C@@H](n2nc(-c3ccc(Oc4ccccc4)cc3)c3c(N)ncnc32)C1)CCCCNC(=O)CCCC(=O)NCCCOCCOCCOCCCNC(=O)CCCC[C@@H]1SC[C@@H]2NC(=O)N[C@@H]21	–	127	87.3	–	–	–
O=C1CCC(=O)N1CCSc1ncc(-c2ccc(F)cc2)[nH]1	2.4	35.6	717	–	–	–
Cc1nc(-c2cc(C)on2)n(CCc2ccccc2)n1	0.6	92.1	3950	21.5 (≈ 80.2 µM)	–	–
CC(C)CN1CC[C@H](c2nc3ccc(C#N)cc3[nH]2)C1	1.46	6.69	76.3	36.7 (≈ 137 µM)	–	–
O=C(C1CC1c1ccc(F)cc1)N1CCC(n2c(=O)[nH]c3ccccc32)CC1 (stereo not given)	–	14.7	233	47.8 (≈ 126 µM)	–	–
COc1cc2nc(/C=C/c3cocn3)sc2cc1OC	0.504	11.4	74.5	12.4 (≈ 42.9 µM)	–	–
Cc1cccn(Cc2cccc(C#N)c2)c1=O	0.69	≤ 4.74	28.8	30.9 (≈ 138 µM)	–	–
CCc1cnc(NCc2ccc(CN3CCCC3)cc2)nc1	1.06	≤ 4.74	291	31.8 (≈ 107 µM)	–	–
